Experimental data: US20240132931A1, “Biological Indicator with Enhanced Volatile Organic Compound Detection” (O&M Halyard, Inc., priority 2022, published 2024)

How the values were obtained:
[1] = tested on: Geobacillus stearothermophilus spores; assay: VOC production (SPME, GC-MS) during the first 20 minutes of spore germination, growth medium with or without additive (Example 1); type: cell-based
Description: Spore suspension of Geobacillus stearothermophilus (1×10^6 CFU/0.1 mL) were diluted to reach a concentration of 500-800 CFU/30-50 μL after being heat shock for 15 min at 95-99° C. to kill all vegetative cell that might have been present in the suspension.
A modified soybean casein digest broth was diluted (10×) with HPLC grade water and sterilize by filtration 0.45 μm to limit the amount of VOC in the background. was used with or without the addition of an additive.
For the VOC testing, 0.5 mL of the sterile diluted growth medium was transferred in each VOC collection vials. The vials were prewarm at 60° C. for at least 10 minutes. Before starting the VOC sampling, the additive was added to the vials, then the spores according to Table 1 in function of the test to be performed. The VOC were sampled by inserting the SPME fiber into the vial as soon as the spores were added, and the vials were put back in the temperature control systems. The SPME fiber use was an assembly Divinylbenzene/Carboxen/Polydimethylsiloxane (DVB/CAR/PDMS) (Sigma Aldrich—product number 57328-U from Supelco) conditioned at 270° C. for 30 minutes before use. The SPME fibers were removed 20 minutes after the addition of the spores and were analyzed using the GC-MS according to the lab protocols for the apparatus.

[2] = tested on: Geobacillus stearothermophilus spores; assay: VOC production (SPME, GC-MS) during the first 15 minutes of spore germination, growth medium with L-threonine or glucose (Example 2); type: cell-based
Description: Spore suspension of Geobacillus stearothermophilus (1×10^6 CFU/0.1 mL) were heated for 30 min at 99-100° C. to kill all vegetative cell that might have been present in the suspension.
A growth medium composed of a modified soybean casein digest broth diluted (200×) with the sterilized germination medium (1,0 mM L-valine in 10 mM sodium phosphate buffer (pH 8.0) as described by “thou T, Dong Z, Setlow P, Li Y-q (2013), Kinetics of Germination of Individual Spores of Geobacillus stearothermophilus as Measured by Raman Spectroscopy and Differential Interference Contrast Microscopy. PLoS ONE 8(9): e74987)” was used with or without the addition of L-threonine or glucose at 5 mM. One test was also performed with the germination medium by itself, without the modified soybean casein digest broth diluted (200×) and the additives. The controls included the SPME fiber alone, in the presence of 2500 μg methanol, and growth medium with and without the L-Threonine or glucose.
For the VOC testing, 0.5 mL of the control solution (methanol) or sterile growth medium was transferred in each VOC collection vials. The vials were prewarm at 65° C. for at least 10 minutes. […] The SPME fibers were removed 15 minutes after the addition of the spores and were analyzed using the GC-MS according to the lab protocols for the apparatus.

[3] = GM + spores (about 500-800 CFU) + additive 5 mM, 60° C., 20 minutes

SMILES | Detection of 1-Nonene, Nonane, 1-Octene, Octane, Heptane ([1]; Example 1) | Propene concentration change from the presence of the additive ([1]; Example 1) | 1-butanol intensity in comparison to the growth medium intensity [1, 3] | Acetaldehyde intensity in comparison to the growth medium intensity [1, 3] | Formaldehyde intensity in comparison to the growth medium intensity [1, 3] | Nonanal Octanal Heptanal intensity in comparison to the growth medium intensity [1, 3] | Formation of common VOC such as 1-nonene ([2]; Example 2) | Butanal produced (qualitative amount) ([2]; GM + 5 mM additive + 5000-10000 spores, 65° C., 15 minutes)
CO[C@H]1O[C@H](CO)[C@@H](O)[C@H](O)[C@H]1O [Additive, Methyl alpha-D-glucopyranoside] | detected only in the presence of the additive | not increasing | (+up to 3X) | to 2X | (+10X) | (up to 3X) | – | –
C[C@@H](O)[C@H](N)C(=O)O [L-threonine] | – | – | – | – | – | – | leads to the formation | <control
